Results on 7 compounds are retold here after patent US11484607B2, “PSMA-targeted NIR dyes and their uses” (On Target Laboratories, LLC, priority 2015, dated 2022).

Series [1] relates to human prostate tumor xenografts (22Rv1 cells). Put plainly: Tissue biodistribution and tumor-to-tissue fluorescence ratio of DUPA-NIR conjugates, IVIS imaging. The series is classed as in vivo, mice. Particulars: 2 h after tail vein injection. How it is done: In vivo studies. More specifically, biodistribution of DUPA-NIR conjugates 1-9 was monitored using fluorescence imaging of mice bearing human prostate tumor xenografts (22Rv1 cells). Male nude mice with 22Rv1 tumor xenografts were injected with DUPA-NIR dye conjugates via tail vein. The mice were euthanized 2 h after administration of the DUPA-NIR dye conjugate, selected tissues were harvested, and tissues were imaged with IVIS imager (ex=745 nm, em=ICG, exposure time=1 s).
The conjugates were also tested to show the ratio of tumor-to-tissue fluorescence. […] After imaging, fluorescence within a Region of interest (ROI) was measured for each tissue using In Vivo imaging software and tumor-to-tissue fluorescence was then calculated
in vivo studies. […] Male nude mice with 22Rv1 tumor xenografts were injected with DUPA-NIR dye conjugates via tail vein. The mice were euthanized 2 h after administration of the DUPA-NIR dye conjugate, selected tissues were harvested, and tissues were imaged with IVIS imager (ex=745 nm, em=ICG, exposure time=1 s). After imaging, fluorescence within a Region of interest (ROI) was measured for each tissue using In Vivo imaging software and tumor-to-tissue fluorescence was then calculated.
Male nude mice with 22Rv1 tumor xenografts were injected with DUPA-NIR dye conjugates via tail vein. The mice were euthanized 2 h after administration of the DUPA-NIR dye conjugate, selected tissues were harvested, and tissues were imaged with IVIS imager (ex=745 nm, em=ICG, exposure time=1 s). After imaging, fluorescence within a Region of interest (ROI) was measured for each tissue using In Vivo imaging software and tumor-to-tissue fluorescence was then calculated.
In vivo studies. […] Male nude mice with 22Rv1 tumor xenografts were injected with DUPA-NIR dye conjugates via tail vein. The mice were euthanized 2 h after administration of the DUPA-NIR dye conjugate, selected tissues were harvested, and tissues were imaged with IVIS imager (ex=745 nm, em=ICG, exposure time=1 s). After imaging, fluorescence within a Region of interest (ROI) was measured for each tissue using In Vivo imaging software and tumor-to-tissue fluorescence was then calculated.

Series [2] concerns 22Rv1 human prostate tumor xenograft. Put plainly: Time dependent whole-body fluorescence imaging of DUPA-NIR conjugates, IVIS imager. Type of series: in vivo, mouse. Particulars: for whole-body imaging: 6 or 20 nmol, imaged at different time intervals. Here is the method:
22Rv1 human prostate tumor xenograft bearing mouse was injected with 20 nmol of 15 and imaged with IVIS imager (ex=745 nm, em=ICG, exposure time=1 s) at different time intervals.
22Rv1 human prostate tumor xenograft bearing mouse was injected with 20 nmol of 23 and imaged with IVIS imager (ex=745 nm, em=ICG, exposure time=1 s) at different time intervals.
22Rv1 human prostate tumor xenograft bearing mouse was injected with 20 nmol of 25 and imaged with IVIS imager (ex=745 nm, em=ICG, exposure time=1 s) at different time intervals
22Rv1 human prostate tumor xenograft bearing mouse was injected with 6 nmol of 35 and imaged with IVIS imager (ex=745 nm, em=ICG, exposure time=1 s) at different time intervals.
22Rv1 human prostate tumor xenograft bearing mouse was injected with 6 nmol of 36 and imaged with IVIS imager (ex=745 nm, em=ICG, exposure time=1 s) at different time intervals.
22Rv1 human prostate tumor xenograft bearing mouse was injected with 20 nmol of 39 and imaged with IVIS imager (ex=745 nm, em=ICG, exposure time=1 s) at different time intervals.
22Rv1 human prostate tumor xenograft bearing mouse was injected with 20 nmol of 40 and imaged with IVIS imager (ex=745 nm, em=ICG, exposure time=1 s) at different time intervals.
22Rv1 human prostate tumor xenograft bearing mouse was injected with 20 nmol of 41 and imaged with IVIS imager (ex=745 nm, em=ICG, exposure time=1 s) at different time intervals.
FIG. 25: Overlay of whole body or half body fluorescence image over white light images after adjusting the threshold. 22Rv1 human prostate tumor xenograft bearing mouse was injected with 20 nmol of 54 and imaged with IVIS imager (ex=745 nm, em=ICG, exposure time=1 s) at different time intervals.
22Rv1 human prostate tumor xenograft bearing mouse was injected with 20 nmol of 55 and imaged with IVIS imager (ex=745 nm, em=ICG, exposure time=1 s) at different time intervals.
22Rv1 human prostate tumor xenograft bearing mouse was injected with 20 nmol of 56 and imaged with IVIS imager (ex=745 nm, em=ICG, exposure time=1 s) at different time intervals.
22Rv1 human prostate tumor xenograft bearing mouse was injected with 20 nmol of 57 and imaged with IVIS imager (ex=745 nm, em=ICG, exposure time=1 s) at different time intervals
22Rv1 human prostate tumor xenograft bearing mouse was injected with 20 nmol of 58 and imaged with IVIS imager (ex=745 nm, em=ICG, exposure time=1 s) at different time intervals
22Rv1 human prostate tumor xenograft bearing mouse was injected with 20 nmol of 60 and imaged with IVIS imager (ex=745 nm, em=ICG, exposure time=1 s) at different time intervals.
in vivo studies. […] 22Rv1 human prostate tumor xenograft bearing mouse was injected with 20 nmol of 63 and imaged with IVIS imager (ex=745 nm, em=ICG, exposure time=1 s) at different time intervals.
22Rv1 human prostate tumor xenograft bearing mouse was injected with 6 nmol of 63 and imaged with IVIS imager (ex=745 nm, em=ICG, exposure time=1 s) at different time intervals.
22Rv1 human prostate tumor xenograft bearing mouse was injected with 20 nmol of 64 and imaged with IVIS imager (ex=745 nm, em=ICG, exposure time=1 s) at different time intervals.
22Rv1 human prostate tumor xenograft bearing mouse was injected with 6 nmol of 15 and imaged with IVIS imager (ex=745 nm, em=ICG, exposure time=1 s) at different time intervals.

For a further series, the target named is T1, PSMA (Homo sapiens, UniProt Q04609).
T1 construct: host or cells: 22Rv1 human prostate cancer cells
Put plainly: Relative binding affinity of DUPA-NIR conjugates with respect to DUPA-FITC on 22Rv1 cells, flow cytometry. As to conditions: for affinity for PSMA (in words): in vitro binding affinity data; for Kd: conjugates with aromatic linkers, 1 h at 37° C., 100 nM DUPA-FITC. Here is the method: FIG. 3—Relative binding affinities of DUPA-NIR conjugates 1-9 with respect to DUPA-FITC (14). PSMA-positive 22Rv1 human prostate cancer cells were incubated for 1 h at 37° C. in the presence of 100 nM DUPA-FITC with increasing concentrations of DUPA-NIR conjugates. […] Cell bound fluorescence was assayed as using flow cytometry.
FIG. 6—Relative binding affinities of DUPA-NIR conjugates with aromatic amino acids linkers with respect to DUPA-FITC (14). PSMA-positive 22Rv1 human prostate cancer cells were incubated for 1 h at 37° C. in the presence of 100 nM DUPA-FITC with increasing concentrations of DUPA-NIR conjugates. […] Cell bound fluorescence was assayed as using flow cytometry.
FIG. 3 Relative binding affinities of DUPA-NIR conjugates 1-9 with respect to DUPA-FITC (14). PSMA-positive 22Rv1 human prostate cancer cells were incubated for 1 h at 37° C. in the presence of 100 nM DUPA-FITC with increasing concentrations of DUPA-NIR conjugates. […] Cell bound fluorescence was assayed as using flow cytometry.
in vitro studies. […] PSMA-positive 22Rv1 human prostate cancer cells were incubated for 1 h at 37° C. in the presence of 100 nM DUPA-FITC with increasing concentrations of DUPA-NIR conjugates. […] Cell bound fluorescence was assayed as using flow cytometry.
PSMA-positive 22Rv1 human prostate cancer cells were incubated for 1 h at 37° C. in the presence of 100 nM DUPA-FITC with increasing concentrations of DUPA-NIR conjugates. […] Cell bound fluorescence was assayed as using flow cytometry.
FIG. 24: Relative binding affinities of DUPA-NIR conjugates with respect to DUPA-FITC (14). PSMA-positive 22Rv1 human prostate cancer cells were incubated for 1 h at 37° C. in the presence of 100 nM DUPA-FITC with increasing concentrations of DUPA-NIR conjugates. […] Cell bound fluorescence was assayed as using flow cytometry.
PSMA-positive 22Rv1 human prostate cancer cells were incubated for 1 h at 37° C. in the presence of 100 nM DUPA-FITC with increasing concentrations of DUPA-NIR conjugates. […] Cell bound fluorescence was assayed as using flow cytometry
Cancer cells were incubated for 1 h at 37° C. in the presence of 100 nM DUPA-FITC with increasing concentrations of compound 15. […] Cell bound fluorescence was assayed as using flow cytometry.
(In flow cytometry, cells or beads pass a laser one at a time.)

The nature of series [3]: Concentration dependent UV spectrometric study of higher order aggregates. Type of series: physicochemical. How it is done:
Possible OTL78-related hypersensitivity in human was next examined using basophil activation assay. Drug related hypersensitivity is mainly due to immune response caused by cross-linking of immunoglobulin E (IgE) expressed on mast cells and basophils (FIG. 47D) resulting in activation and subsequent degranulation to release vasoactive amines, prostaglandins, and cytokines (29). Since cross-linking of IgE can be due to aggregates, concentration dependent UV spectrometric studies were conducted to determine higher order aggregates of OTL78.

T1 sequence (Q04609 whole entry): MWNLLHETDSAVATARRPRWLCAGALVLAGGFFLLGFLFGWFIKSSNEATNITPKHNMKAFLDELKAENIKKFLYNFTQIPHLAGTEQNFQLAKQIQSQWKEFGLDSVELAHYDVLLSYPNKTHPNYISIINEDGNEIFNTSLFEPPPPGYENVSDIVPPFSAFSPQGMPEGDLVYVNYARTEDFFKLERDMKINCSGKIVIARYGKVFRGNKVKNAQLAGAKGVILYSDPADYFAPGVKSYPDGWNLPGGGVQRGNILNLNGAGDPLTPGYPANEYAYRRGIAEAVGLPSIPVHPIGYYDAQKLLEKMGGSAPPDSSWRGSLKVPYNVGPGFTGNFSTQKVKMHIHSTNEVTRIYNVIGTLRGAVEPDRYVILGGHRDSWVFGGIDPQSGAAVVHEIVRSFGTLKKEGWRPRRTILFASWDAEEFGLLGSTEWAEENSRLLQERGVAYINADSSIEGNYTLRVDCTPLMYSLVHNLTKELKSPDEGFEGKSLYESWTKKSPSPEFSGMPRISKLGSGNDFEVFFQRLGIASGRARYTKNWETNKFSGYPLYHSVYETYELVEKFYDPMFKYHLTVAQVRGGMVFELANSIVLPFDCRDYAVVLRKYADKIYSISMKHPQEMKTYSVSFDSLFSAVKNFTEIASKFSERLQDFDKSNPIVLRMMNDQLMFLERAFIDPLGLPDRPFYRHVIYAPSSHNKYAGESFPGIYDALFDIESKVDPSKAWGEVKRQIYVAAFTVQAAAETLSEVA

On to `CC1(C)C(/C=C/C2=C(Oc3ccc(C[C@H](NC(=O)[C@H](Cc4ccccc4)NC(=O)CCCCCCCNC(=O)CC[C@H](NC(=O)N[C@@H](CCC(=O)O)C(=O)O)C(=O)O)C(=O)O)cc3)C(=C/C=C3/N(CCCCS(=O)(=O)O)c4ccc(S(=O)(=O)O)cc4C3(C)C)/CCC2)=[N+](CCCCS(=O)(=O)[O-])c2ccc(S(=O)(=O)O)cc21` [Compound 15], for which the “tumor-to-background ratio (TBR), in words” value in series [1] is “excellent”. Also, in series [2] (6 nmol, time dependent), the “sites of accumulation in whole-body imaging” value was “accumulated in PSMA-positive tumors and kidneys”. Moreover, in series [2], the whole-body imaging entry was “very good whole-body imaging data within 2-4 hours”. Moreover, the “affinity for PSMA (in words)” value on PSMA is recorded as “very high affinity”.
Usually Kd stands for the equilibrium constant for the complex coming apart. Low readings indicate a tighter complex, high ones a looser complex. With `CC1(C)C(/C=C/C2=C(Oc3ccc(C[C@H](NC(=O)[C@H](Cc4ccccc4)NC(=O)[C@H](Cc4ccccc4)NC(=O)CCCCCCCNC(=O)CC[C@H](NC(=O)N[C@@H](CCC(=O)O)C(=O)O)C(=O)O)C(=O)O)cc3)C(=C/C=C3/N(CCCCS(=O)(=O)O)c4ccc(S(=O)(=O)O)cc4C3(C)C)/CCC2)=[N+](CCCCS(=O)(=O)[O-])c2ccc(S(=O)(=O)O)cc21` [Compound 23], the whole-body imaging entry in series [2] is listed as “very good whole-body imaging data within 2-4 hours”. In addition, at PSMA, binding was characterised by a dissociation constant (Kd) of 7.5 nM and the “affinity for PSMA (in words)” value is recorded as “very high affinity”.
In the same order, the values of `CC1(C)C(/C=C/C2=C(SC[C@H](NC(=O)[C@H](Cc3ccccc3)NC(=O)CCCCCCCNC(=O)CC[C@H](NC(=O)N[C@@H](CCC(=O)O)C(=O)O)C(=O)O)C(=O)O)C(=C/C=C3/N(CCCCS(=O)(=O)O)c4ccc(S(=O)(=O)O)cc4C3(C)C)/CCC2)=[N+](CCCCS(=O)(=O)[O-])c2ccc(S(=O)(=O)O)cc21` [Compound 25] are “very good whole-body imaging data within 2-4 hours”, 6.3 nM and “very high affinity”.
For the compound `CC1(C)C(/C=C/C2=C(Oc3ccc(C[C@H](NC(=O)[C@H](Cc4ccccc4)NC(=O)CCOCCOCCNC(=O)CC[C@H](NC(=O)N[C@@H](CCC(=O)O)C(=O)O)C(=O)O)C(=O)O)cc3)C(=C/C=C3/N(CCCCS(=O)(=O)O)c4ccc(S(=O)(=O)O)cc4C3(C)C)/CCC2)=[N+](CCCCS(=O)(=O)[O-])c2ccc(S(=O)(=O)O)cc21` [Compound 35], the “tumor-to-background ratio (TBR), in words” value in series [1] is “excellent”. Further, the whole-body imaging entry in series [2] is given as “very good whole-body imaging data within 2-4 hours”. In addition, on PSMA, the dissociation constant Kd amounted to 23.9 nM.
With `CC1(C)C(/C=C/C2=C(Oc3ccc(C[C@H](NC(=O)[C@](C)(Cc4ccc(F)cc4)NC(=O)CCOCCOCCNC(=O)CC[C@H](NC(=O)N[C@@H](CCC(=O)O)C(=O)O)C(=O)O)C(=O)O)cc3)C(=C/C=C3/N(CCCCS(=O)(=O)O)c4ccc(S(=O)(=O)O)cc4C3(C)C)/CCC2)=[N+](CCCCS(=O)(=O)[O-])c2ccc(S(=O)(=O)O)cc21` [Compound 36], the whole-body imaging result in series [2] is reported as “very good whole-body imaging data within 2-4 hours”. The “affinity for PSMA (in words)” value on PSMA was “very high affinity”.
Turning to `CC1(C)C(/C=C/C2=C(Oc3ccc(C[C@H](NC(=O)[C@H](CCCNC(=N)N)NC(=O)[C@H](Cc4ccccc4)NC(=O)CCCCCCCNC(=O)CC[C@H](NC(=O)N[C@@H](CCC(=O)O)C(=O)O)C(=O)O)C(=O)O)cc3)C(=C/C=C3/N(CCCCS(=O)(=O)O)c4ccc(S(=O)(=O)O)cc4C3(C)C)/CCC2)=[N+](CCCCS(=O)(=O)[O-])c2ccc(S(=O)(=O)O)cc21` [Compound 41], in series [2], the whole-body imaging result is listed as “very good whole-body imaging”. Moreover, at PSMA, the “affinity for PSMA (in words)” value was “very high affinity”.
OTL38 [reference compound] yielded a higher aggregates in series [3] (75 μM concentration in saline) greater than 50%. The “higher order aggregates (UV spectra), in words” value in series [3] (75 μM in saline) was “concentration dependent aggregation peak”.
